According to patent US9751885B2, “Cyclopropanamine compound and use thereof” (Takeda Pharmaceutical Company Limited, priority 2012, dated 2017):
Counter-ions that a name gives are not always drawn. Like-named read-outs stand apart in the source and are kept apart here.

Assays:
[1] = Evaluation of hippocampal distribution in mouse; format: in vivo; details: male ICR mice, 10 mg/kg oral; for concentration at 0.5 h / Kp at 0.5 h: 0.5 hr after administration; for Kp at 0.5 h / Kp at 1 h: hippocampus/plasma, read-out: hippocampus/plasma concentration ratio (mean); for concentration at 1 h / Kp at 1 h: 1 hr after administration
Experimental: Evaluation of Hippocampal Distribution in Mouse
(§1) Male ICR mice (hereinafter mice) were acclimated for at least one week in a rearing facility. The mice were raised in a rearing room with controlled temperature and humidity under a 12:12 hour light-dark cycle, and allowed free ingestion of feed and water.
The compounds were suspended in 0.5% methylcellulose/0.02% citric acid/distilled water and orally administered. All compounds were administered to the mice at a dose of 10 mg/kg (body weight).
Blood samples were collected at 0.5 hr, or 1 hr, or 1.5 hr from compound administration, and the hippocampus was isolated simultaneously. The plasma concentration and hippocampus concentration of each test compound were measured by the LC/MS/MS method, the ratio (hippocampus/plasma concentration ratio) was calculated, and distribution into hippocampus was evaluated.

[2] = tested on: white blood cell number, red blood cell number, platelet number; assay: Evaluation of blood cell number in mouse; format: in vivo; details: oral, Day 2 after administration
Experimental: Evaluation of Blood Cell Number in Mouse
as §1
The compounds were suspended in 0.5% methylcellulose/0.02% citric acid/distilled water and orally administered. All compounds were administered to the mice at a dose of 1 mg/kg, 10 mg/kg, 50 mg/kg or 100 mg/kg (body weight). On Day 2 after the administration of the compound, the whole blood was collected.
Using Sysmex XT-1800i (Sysmex Corporation), the white blood cell number, red blood cell number, and platelet number in the collected whole blood per unit volume were measured. The influence of each compound on each blood cell number was determined by comparing the number with the mean of each blood cell number of the mouse without administration of the compound (control group), and the numerical value of each blood cell number of a mouse with the administration of the compound is shown in percentage. percentage (%) of blood cell number of compound administration group as compared to control group=(mean blood cell number of compound administration group mean blood cell number of compound non-administration group)×100

[3] = hippocampus, read-out: hippocampus concentration (mean)
[4] = plasma, read-out: plasma concentration (mean)

Row | SMILES | concentration at 0.5 h [1, 3] [ng/g] | Kp at 0.5 h [1] | concentration at 0.5 h [1, 4] [ng/mL] | platelet number, percentage of compound administration group compared to control group, mean ([2]; 10 mg/kg) [%] | red blood cell number, percentage of compound administration group compared to control group, mean ([2]; 10 mg/kg) [%] | white blood cell number, percentage of compound administration group compared to control group, mean ([2]; 10 mg/kg) [%] | platelet number, percentage of compound administration group compared to control group, mean ([2]; 100 mg/kg) [%] | red blood cell number, percentage of compound administration group compared to control group, mean ([2]; 100 mg/kg) [%] | white blood cell number, percentage of compound administration group compared to control group, mean ([2]; 100 mg/kg) [%] | concentration at 1 h [1, 3] [ng/g] | Kp at 1 h [1] | concentration at 1 h [1, 4] [ng/mL]
1 | O=C(NC1CCOCC1)c1cccc([C@@H]2C[C@H]2NCC2CC2)c1 (relative stereo) [Example 100, 3-(trans-2-((cyclopropylmethyl)amino)cyclopropyl)-N-(tetrahydro-2H-pyran-4-yl)benzamide hydrochloride] | 207 | 0.24 | 889 | 98.1 | 92.9 | 99.4 | 91.0 | 98.8 | 104.8 | – | – | –
2 | O=C(NC1CCC(F)(F)CC1)c1cccc([C@@H]2C[C@H]2NCC2CC2)c1 (relative stereo) [Example 102, 3-(trans-2-((cyclopropylmethyl)amino)cyclopropyl)-N-(4,4-difluorocyclohexyl)benzamide hydrochloride] | – | – | – | 97.7 | 99.5 | 107.0 | 94.7 | 104.9 | 116.8 | 482 | 1.84 | 268
3 | Cc1cc(NC(=O)c2cccc([C@@H]3C[C@H]3NCC3CC3)c2)n(C)n1 (relative stereo) [Example 107, 3-(trans-2-((cyclopropylmethyl)amino)cyclopropyl)-N-(1,3-dimethyl-1H-pyrazol-5-yl)benzamide dihydrochloride] | 242 | 0.09 | 2560 | 95.4 | 98.4 | 86.6 | 91.1 | 102.2 | 132.7 | – | – | –
4 | Cc1nnc(NC(=O)c2cccc([C@@H]3C[C@H]3NC3CCC(F)(F)CC3)c2)s1 (relative stereo) [Example 167, 3-(trans-2-((4,4-difluorocyclohexyl)amino)cyclopropyl)-N-(5-methyl-1,3,4-thiadiazol-2-yl)benzamide hydrochloride] | – | – | – | 105.3 | 102.5 | 86.4 | 103.2 | 102.4 | 68.2 | 915 | 0.74 | 1230

Continued, values first:

Row | concentration at 0.5 h [1, 3] [ng/g] | Kp at 0.5 h [1] | concentration at 0.5 h [1, 4] [ng/mL] | platelet number, percentage of compound administration group compared to control group, mean ([2]; 10 mg/kg) [%] | red blood cell number, percentage of compound administration group compared to control group, mean ([2]; 10 mg/kg) [%] | white blood cell number, percentage of compound administration group compared to control group, mean ([2]; 10 mg/kg) [%] | platelet number, percentage of compound administration group compared to control group, mean ([2]; 100 mg/kg) [%] | red blood cell number, percentage of compound administration group compared to control group, mean ([2]; 100 mg/kg) [%] | white blood cell number, percentage of compound administration group compared to control group, mean ([2]; 100 mg/kg) [%] | concentration at 1 h [1, 3] [ng/g] | Kp at 1 h [1] | concentration at 1 h [1, 4] [ng/mL] | SMILES
5 | 1300 | 1.59 | 823 | 101.2 | 98.7 | 136.9 | 98.4 | 99.1 | 97.9 | – | – | – | O=C(NC1CCOCC1)c1cc([C@@H]2C[C@H]2NCC2CC2)ccc1F (relative stereo) [Example 111, 5-(trans-2-((cyclopropylmethyl)amino)cyclopropyl)-2-fluoro-N-(tetrahydro-2H-pyran-4-yl)benzamide hydrochloride]
6 | 614 | 0.36 | 1710 | 92.8 | 99.4 | 112.0 | 86.3 | 102.0 | 136.1 | – | – | – | Cc1nnc(NC(=O)c2cccc([C@@H]3C[C@H]3NCC3CCOCC3)c2)s1 (relative stereo) [Example 112, N-(5-methyl-1,3,4-thiadiazol-2-yl)-3-(trans-2-((tetrahydro-2H-pyran-4-ylmethyl)amino)cyclopropyl)benzamide dihydrochloride]
7 | – | – | – | 102.2 | 105.1 | 99.1 | 100.7 | 103.7 | 109.2 | 396 | 0.56 | 707 | Cn1cc(NC(=O)c2cccc([C@@H]3C[C@H]3NC3CCC3)c2)cn1 (relative stereo) [Example 169, 3-(trans-2-(cyclobutylamino)cyclopropyl)-N-(1-methyl-1H-pyrazol-4-yl)benzamide dihydrochloride]
8 | 266 | 0.2 | 1310 | 114.6 | 98.5 | 133.3 | 104.8 | 98.9 | 133.9 | – | – | – | Cn1cc(NC(=O)c2cccc([C@@H]3C[C@H]3NC3CCN(CC(F)(F)F)CC3)c2)cn1 (relative stereo) [Example 171, N-(1-methyl-1H-pyrazol-4-yl)-3-(trans-2-((1-(2,2,2-trifluoroethyl)piperidin-4-yl)amino)cyclopropyl)benzamide trihydrochloride]
9 | – | – | – | 97.9 | 95.4 | 97.4 | 93.7 | 100.2 | 100.6 | 1280 | – | 1250 | Cc1nnc(NC(=O)c2cccc([C@@H]3C[C@H]3NC3CCC3)c2)s1 (relative stereo) [Example 174, 3-(trans-2-(cyclobutylamino)cyclopropyl)-N-(5-methyl-1,3,4-thiadiazol-2-yl)benzamide hydrochloride]
